These results are taken from patent US8697739B2, “Bicyclic acetyl-CoA carboxylase inhibitors and uses thereof” (Novartis AG, priority 2010, dated 2014).

Broadly, the IC50 is the concentration at which inhibition is half-maximal.

SMILES strings stand for the structures.

In this assay the target is T1, human acetyl-CoA carboxylase 2 (ACC2) (Homo sapiens, UniProt O00763).
T1 construct: The cDNA encoding amino acids 144 to 2458 of human acetyl-CoA carboxylase 2; made in house; host or cells: Sf9 insect cells (baculovirus, pFastBac1)
T1 sequence (O00763 144-2458): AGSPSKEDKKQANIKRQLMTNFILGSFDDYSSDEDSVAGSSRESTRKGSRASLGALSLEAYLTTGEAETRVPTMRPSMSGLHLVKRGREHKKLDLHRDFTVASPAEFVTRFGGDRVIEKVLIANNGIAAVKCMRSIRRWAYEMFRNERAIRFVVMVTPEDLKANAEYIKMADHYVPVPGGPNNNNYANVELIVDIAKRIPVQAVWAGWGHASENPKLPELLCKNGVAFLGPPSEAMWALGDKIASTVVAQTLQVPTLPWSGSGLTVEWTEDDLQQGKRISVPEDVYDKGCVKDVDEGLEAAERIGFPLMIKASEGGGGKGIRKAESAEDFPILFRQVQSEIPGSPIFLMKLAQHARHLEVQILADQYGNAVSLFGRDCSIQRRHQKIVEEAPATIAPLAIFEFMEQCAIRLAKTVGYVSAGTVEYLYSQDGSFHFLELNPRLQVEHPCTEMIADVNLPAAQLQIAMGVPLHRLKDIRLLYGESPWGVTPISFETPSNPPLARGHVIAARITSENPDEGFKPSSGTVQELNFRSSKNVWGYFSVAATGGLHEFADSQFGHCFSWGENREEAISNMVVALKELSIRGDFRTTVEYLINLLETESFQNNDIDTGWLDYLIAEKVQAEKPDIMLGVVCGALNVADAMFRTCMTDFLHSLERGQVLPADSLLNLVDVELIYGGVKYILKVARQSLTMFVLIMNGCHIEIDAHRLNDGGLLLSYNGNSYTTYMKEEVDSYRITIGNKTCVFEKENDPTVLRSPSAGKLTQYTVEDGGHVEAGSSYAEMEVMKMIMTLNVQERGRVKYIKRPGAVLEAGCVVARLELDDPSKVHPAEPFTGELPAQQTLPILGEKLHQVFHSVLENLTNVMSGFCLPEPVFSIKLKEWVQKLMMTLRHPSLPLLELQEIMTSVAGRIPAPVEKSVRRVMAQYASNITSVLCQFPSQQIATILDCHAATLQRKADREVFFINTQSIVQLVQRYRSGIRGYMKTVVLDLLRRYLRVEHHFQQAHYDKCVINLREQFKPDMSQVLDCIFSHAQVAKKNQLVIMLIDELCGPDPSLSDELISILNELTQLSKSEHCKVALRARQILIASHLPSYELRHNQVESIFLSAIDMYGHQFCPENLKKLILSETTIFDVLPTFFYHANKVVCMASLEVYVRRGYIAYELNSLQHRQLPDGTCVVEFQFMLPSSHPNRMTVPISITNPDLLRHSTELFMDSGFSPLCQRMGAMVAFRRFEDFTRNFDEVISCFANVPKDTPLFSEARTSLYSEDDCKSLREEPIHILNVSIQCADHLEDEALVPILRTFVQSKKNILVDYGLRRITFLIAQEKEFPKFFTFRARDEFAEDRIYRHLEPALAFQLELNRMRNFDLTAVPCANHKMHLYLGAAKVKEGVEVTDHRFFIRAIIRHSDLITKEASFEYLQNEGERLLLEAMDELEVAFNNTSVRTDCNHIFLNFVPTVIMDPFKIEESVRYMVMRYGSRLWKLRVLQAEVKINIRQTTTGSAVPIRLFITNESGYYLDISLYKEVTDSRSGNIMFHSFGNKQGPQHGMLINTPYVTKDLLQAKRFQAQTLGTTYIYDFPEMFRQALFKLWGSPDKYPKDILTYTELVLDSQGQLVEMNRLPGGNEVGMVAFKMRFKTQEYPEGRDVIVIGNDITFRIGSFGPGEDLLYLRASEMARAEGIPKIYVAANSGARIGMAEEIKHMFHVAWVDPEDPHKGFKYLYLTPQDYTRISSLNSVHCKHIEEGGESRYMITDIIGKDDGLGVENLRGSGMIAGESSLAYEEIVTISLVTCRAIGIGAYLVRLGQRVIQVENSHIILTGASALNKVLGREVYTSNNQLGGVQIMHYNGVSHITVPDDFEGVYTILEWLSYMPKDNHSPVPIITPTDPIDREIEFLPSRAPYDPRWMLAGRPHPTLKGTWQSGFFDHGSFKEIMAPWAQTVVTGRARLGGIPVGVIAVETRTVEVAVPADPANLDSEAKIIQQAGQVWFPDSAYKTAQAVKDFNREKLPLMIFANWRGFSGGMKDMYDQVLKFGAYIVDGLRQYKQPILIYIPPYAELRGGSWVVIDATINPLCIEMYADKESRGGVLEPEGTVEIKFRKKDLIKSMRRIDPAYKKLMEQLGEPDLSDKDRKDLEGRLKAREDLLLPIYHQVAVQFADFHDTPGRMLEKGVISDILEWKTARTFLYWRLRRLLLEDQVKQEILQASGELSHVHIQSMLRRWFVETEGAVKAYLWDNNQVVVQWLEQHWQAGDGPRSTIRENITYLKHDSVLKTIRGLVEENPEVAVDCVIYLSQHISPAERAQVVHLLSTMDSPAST
Description: Acetyl-CoA carboxylase enzyme assay (malonyl-CoA formation by LC/MS/MS). Particulars: recombinant human ACC2 (aa 144-2458); read-out: IC50 ACC2. It is filed as biochemical. The essentials:
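Malonyl-CoA formation was read by LC/MS/MS MRM against a [13C3]-malonyl-CoA internal standard, after acetic acid quench. The enzyme was baculovirus/Sf9-expressed human ACC2 residues 144–2458, given 15 minutes room-temperature compound preincubation in HEPES pH 7.5 buffer with MgCl2, citrate and DTT. Substrate solution held 50 μM acetyl-CoA, 120 μM ATP and 2 mM KHCO3.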
With `Cn1c(C2CC2)c(C#N)c2ccc(S(=O)(=O)N[C@H]3CC[C@H](C(=O)N4CCCC4C(C)(C)C)CC3)cc21` (stereo partly drawn) [Example 390, N-((1r,4r)-4-(2-tert-butylpyrrolidine-1-carbonyl)cyclohexyl)-3-cyano-2-cyclopropyl-1-methyl-1H-indole-6-sulfonamide], the IC50 was found to be 10 nM.

Regarding `CCOC(=O)C1(C)CCC(NS(=O)(=O)c2ccc3c(ccn3C)c2)CC1` (stereo not drawn) [Example 391, ethyl 1-methyl-4-(1-methyl-1H-indole-5-sulfonamido)cyclohexanecarboxylate], the IC50 worked out at 760 nM.

For `Cn1c(-c2ccc(CCC(=O)O)cc2)cc2ccc(S(=O)(=O)N[C@H]3CC[C@H](C(=O)N4CCC[C@@H]4c4ccc(F)cc4)CC3)cc21` [Example 392, 3-(4-(6-(N-((1R,4r)-4-((R)-2-(4-fluorophenyl)pyrrolidine-1-carbonyl)cyclohexyl)sulfamoyl)-1-methyl-1H-indol-2-yl)phenyl)propanoic acid], the IC50 was found to be 115 nM.

In the case of `Cn1c(-c2ccc(CCC(=O)O)cc2)cc2ccc(S(=O)(=O)N[C@H]3CC[C@H](C(=O)N4CCC[C@H]4c4ccc(F)cc4)CC3)cc21` [Example 393, 3-(4-(6-(N-((1S,4r)-4-((S)-2-(4-fluorophenyl)pyrrolidine-1-carbonyl)cyclohexyl)sulfamoyl)-1-methyl-1H-indol-2-yl)phenyl)propanoic acid], the IC50 was < 10 nM.

For the compound `COC(=O)CCc1ccc(-c2cc3ccc(S(=O)(=O)N[C@H]4CC[C@H](C(=O)N5CCCC5C(C)(C)C)CC4)cc3n2C)cc1` (stereo partly drawn) [Example 394, methyl 3-(4-(6-(N-((1r,4r)-4-(2-tert-butylpyrrolidine-1-carbonyl)cyclohexyl)sulfamoyl)-1-methyl-1H-indol-2-yl)phenyl)propanoate], the IC50 was found to be 15 nM.

For the compound `Cn1c(-c2ccc(CCC(=O)O)cc2)cc2ccc(S(=O)(=O)N[C@H]3CC[C@H](C(=O)N4CCCC4C(C)(C)C)CC3)cc21` (stereo partly drawn) [Example 395, 3-(4-(6-(N-((1r,4r)-4-(2-tert-butylpyrrolidine-1-carbonyl)cyclohexyl)sulfamoyl)-1-methyl-1H-indol-2-yl)phenyl)propanoic acid], the IC50 is < 10 nM.

With `COC(=O)C(C)(C)[C@@H](NC(=O)[C@H]1CC[C@H](NS(=O)(=O)c2ccc3cc(C4CC4)n(C)c3c2)CC1)c1ccccc1` [Example 396, (S)-methyl 3-((1r,4S)-4-(2-cyclopropyl-1-methyl-1H-indole-6-sulfonamido)cyclohexanecarboxamido)-2,2-dimethyl-3-phenylpropanoate], the IC50 came to 10 nM.

For `Cn1c(-c2ccc(CCC(=O)O)cc2)cc2ccc(S(=O)(=O)N[C@H]3CC[C@H](C(=O)N4CCC[C@@H]4C(F)(F)F)CC3)cc21` [Example 397, 3-(4-(1-methyl-6-(N-((1R,4r)-4-((R)-2-(trifluoromethyl)pyrrolidine-1-carbonyl)cyclohexyl)sulfamoyl)-1H-indol-2-yl)phenyl)propanoic acid], the IC50 was < 10 nM.

As to `C[C@@H](OC(=O)C1(C)CCC(NS(=O)(=O)c2ccc3c(ccn3C)c2)CC1)c1ccccc1` (stereo partly drawn) [Example 398, (R)-1-phenylethyl 1-methyl-4-(1-methyl-1H-indole-5-sulfonamido)cyclohexanecarboxylate], the IC50 is < 10 nM.

For the compound `Cn1c(-c2ccc(CCC(=O)O)cc2)cc2ccc(S(=O)(=O)N[C@H]3CC[C@H](C(=O)N4CCC[C@H]4C(C)(C)C)CC3)cc21` [Example 399, 3-(4-(6-(N-((1S,4r)-4-((S)-2-tert-butylpyrrolidine-1-carbonyl)cyclohexyl)sulfamoyl)-1-methyl-1H-indol-2-yl)phenyl)propanoic acid], the IC50 worked out at 340 nM.

Consider `Cn1c(-c2ccc(CCC(=O)O)cc2)cc2ccc(S(=O)(=O)N[C@H]3CC[C@H](C(=O)N4CCC[C@@H]4C(C)(C)C)CC3)cc21` [Example 400, 3-(4-(6-(N-((1R,4r)-4-((R)-2-tert-butylpyrrolidine-1-carbonyl)cyclohexyl)sulfamoyl)-1-methyl-1H-indol-2-yl)phenyl)propanoic acid], for which the IC50 is < 10 nM.

As to `CC1COCCN1C(=O)[C@H]1CC[C@H](NS(=O)(=O)c2ccc3c(C#N)c(C4CC4)n(C)c3c2)CC1` (stereo partly drawn) [Example 401, 3-cyano-2-cyclopropyl-1-methyl-N-((1r,4r)-4-(3-methylmorpholine-4-carbonyl)cyclohexyl)-1H-indole-6-sulfonamide], the IC50 was determined as 25 nM.

For `Cn1c(-c2ccccc2)cc2ccc(S(=O)(=O)N[C@H]3CC[C@H](C(=O)N4CCCOCC4)CC3)cc21` [Example 402, N-((1r,4r)-4-(1,4-oxazepane-4-carbonyl)cyclohexyl)-1-methyl-2-phenyl-1H-indole-6-sulfonamide], the IC50 was 130 nM.

In the case of `Cn1c(-c2ccccc2)cc2ccc(S(=O)(=O)N[C@H]3CC[C@H](C(=O)N4CCC[C@@H](C(C)(C)O)C4)CC3)cc21` [Example 403, N-((1R,4r)-4-((R)-3-(2-hydroxypropan-2-yl)piperidine-1-carbonyl)cyclohexyl)-1-methyl-2-phenyl-1H-indole-6-sulfonamide], the IC50 is 10 nM.

Consider `Cn1c(-c2ccccc2)cc2ccc(S(=O)(=O)N[C@H]3CC[C@H](C(=O)N4CCC[C@H](C(C)(C)O)C4)CC3)cc21` [Example 404, N-((1S,4r)-4-((S)-3-(2-hydroxypropan-2-yl)piperldine-1-carbonyl)cyclohexyl)-1-methyl-2-phenyl-1H-indole-6-sulfonamide], for which the IC50 was < 10 nM.

Take `C[C@H]1CCCCN1C(=O)[C@H]1CC[C@H](NS(=O)(=O)c2ccc3cc(-c4ccccc4)n(C)c3c2)CC1` [Example 405, 1-methyl-N-((1S,4r)-4-((S)-2-methylpiperidine-1-carbonyl)cyclohexyl)-2-phenyl-1H-indole-6-sulfonamide]: the IC50 stood at 35 nM.

In the case of `Cn1c(-c2ccccc2)cc2ccc(S(=O)(=O)N[C@H]3CC[C@H](C(=O)N4CCN(C5CC5)CC4)CC3)cc21` [Example 406, N-((1r,4r)-4-(4-cyclopropylpiperazine-1-carbonyl)cyclohexyl)-1-methyl-2-phenyl-1H-indole-6-sulfonamide], the IC50 was 985 nM.

Turning to `COC(=O)C(C)(C)[C@@H](NC(=O)[C@H]1CC[C@H](NS(=O)(=O)c2ccc3cc(-c4ccccc4)n(C)c3c2)CC1)c1ccccc1` [Example 407, (S)-methyl 2,2-dimethyl-3-((1r,4S)-4-(1-methyl-2-phenyl-1H-indole-6-sulfonamido)cyclohexanecarboxamido)-3-phenylpropanoate], the IC50 is < 10 nM.

Regarding `COC[C@H]1CCCN1C(=O)[C@H]1CC[C@H](NS(=O)(=O)c2ccc3cc(-c4ccccc4)n(C)c3c2)CC1` [Example 408, N-((1R,4r)-4-((R)-2-(methoxymethyl)pyrrolidine-1-carbonyl)cyclohexyl)-1-methyl-2-phenyl-1H-indole-6-sulfonamide], the IC50 amounted to 20 nM.

In the case of `Cn1c(C2CC2)cc2ccc(S(=O)(=O)N[C@H]3CC[C@H](C(=O)N[C@@H](c4ccccc4)C(C)(C)C(=O)O)CC3)cc21` [Example 409, (S)-3-((1r,4S)-4-(2-cyclopropyl-1-methyl-1H-indole-6-sulfonamido)cyclohexanecarboxamido)-2,2-dimethyl-3-phenylpropanoic acid], the IC50 was < 10 nM.

Regarding `C[C@H]1CCCCN1C(=O)[C@H]1CC[C@H](NS(=O)(=O)c2ccc3cc(-c4ccc(CCC(=O)O)cc4)n(C)c3c2)CC1` [Example 410, 3-(4-(1-methyl-6-(N-((1S,4r)-4-((S)-2-methylpiperidine-1-carbonyl)cyclohexyl)sulfamoyl)-1H-indol-2-yl)phenyl)propanoic acid], the IC50 was determined as 20 nM.

In the case of `Cn1c(-c2ccccc2)cc2ccc(S(=O)(=O)N[C@H]3CC[C@H](C(=O)N[C@@H](c4ccccc4)C(C)(C)C(=O)O)CC3)cc21` [Example 411, (S)-2,2-dimethyl-3-((1r,4S)-4-(1-methyl-2-phenyl-1H-indole-6-sulfonamido)cyclohexanecarboxamido)-3-phenylpropanoic acid], the IC50 was < 10 nM.

Turning to `C[C@H]1CN(C)CCN1C(=O)[C@H]1CC[C@H](NS(=O)(=O)c2ccc3cc(-c4ccccc4)n(C)c3c2)CC1` [Example 412, N-((1S,4r)-4-((S)-2,4-dimethylpiperazine-1-carbonyl)cyclohexyl)-1-methyl-2-phenyl-1H-indole-6-sulfonamide], the IC50 was determined as 240 nM.

On to `C[C@@H]1COCCN1C(=O)[C@H]1CC[C@H](NS(=O)(=O)c2ccc3c(C#N)c(C4CC4)n(C)c3c2)CC1` [Example 413, 3-cyano-2-cyclopropyl-1-methyl-N-((1R,4r)-4-((R)-3-methylmorpholine-4-carbonyl)cyclohexyl)-1H-indole-6-sulfonamide], for which the IC50 was 50 nM.

`C[C@H]1COCCN1C(=O)[C@H]1CC[C@H](NS(=O)(=O)c2ccc3c(C#N)c(C4CC4)n(C)c3c2)CC1` [Example 414, 3-cyano-2-cyclopropyl-1-methyl-N-((1S,4r)-4-((S)-3-methylmorpholine-4-carbonyl)cyclohexyl)-1H-indole-6-sulfonamide]: the IC50 is 80 nM.

For the compound `C[C@H]1CCCCN1C(=O)[C@H]1CC[C@H](NS(=O)(=O)c2ccc3c(C#N)c(-c4ccc(CCC(=O)O)cc4)n(C)c3c2)CC1` [Example 415, 3-(4-(3-cyano-1-methyl-6-(N-((1S,4r)-4-((S)-2-methylpiperidine-1-carbonyl)cyclohexyl)sulfamoyl)-1H-indol-2-yl)phenyl)propanoic acid], the IC50 is < 10 nM.

For the compound `C[C@H]1CCCCN1C(=O)[C@H]1CC[C@H](NS(=O)(=O)c2ccc3c(Cl)c(-c4ccc(CCC(=O)O)cc4)n(C)c3c2)CC1` [Example 416, 3-(4-(3-chloro-1-methyl-6-(N-((1S,4r)-4-((S)-2-methylpiperidine-1-carbonyl)cyclohexyl)sulfamoyl)-1H-indol-2-yl)phenyl)propanoic acid], the IC50 was < 10 nM.
